According to US9714244B2, “Substituted pyrido[4,3-d]pyrimidines as Wee-1 inhibitors” (ALMAC DISCOVERY LIMITED, priority 2013, dated 2017):
Structures can show the parent of a compound that is named as a salt. Where two headings read alike, the source gives them in different places.

Tests used:
[1] = CLint estimates using human liver microsomes; type: in vitro ADME; settings: pH 7.4, read-out: HLM activity (HLM CLint)
Protocol: Method for the Determination of CLint Estimates Using Human Liver Microsomes
Test compounds (final concentration=1 μM; final DMSO concentration=0.1%) were incubated in 0.1M phosphate buffer pH 7.4 with human liver microsomes (0.5 mg of protein/mL) at 37° C. Reactions were started by addition of NADPH in 0.1M phosphate buffer pH 7.4 (final concentration 1 mM). 40 μL aliquots were removed at 2, 5, 10, 15, 20, 30, 40 and 50 min. Reactions were quenched in 80 μL of ice-cold methanol. Samples were subsequently frozen overnight then centrifuged at 3500 rpm for 20 min at 4° C. The supernatants were removed and transferred into analytical plates and analysed by LC/MS/MS.
All samples were analysed on a Waters Acquity I-Class coupled to a Waters Xevo TQD mass spectrometer. A Waters BEH C18 2.1×50 mm 1.7 μm column was used and mobile phases were water and methanol containing 0.1% formic acid as modifier. Analysis was by multiple reaction monitoring and conditions were optimised for each test compound.
From a plot of ln peak area against time, the gradient of the line is determined. Subsequently, half-life and intrinsic clearance are calculated using the following equations.

[2] = test system: phospho-cdc2 (Tyr15) in HT-29 cells; assay: Effect on phosphorylation of cdc2 at Tyr15 in HT-29 cells (PathScan ELISA); type: cell-based; settings: Homo sapiens, HT-29, 8 h; HT29 cells, eight hours incubation; read-out: HT29 pCDC2 activity
Protocol: Method 2: Determining the effect of compounds on the phosphorylation of cdc2 at Tyr15
The colorectal cancer cell lines HT-29 and HCT-116 were purchased from the ATCC and routinely maintained in McCoy's Medium (Invitrogen) supplemented with 10% Foetal Calf Serum.
The cells were trypsinised from their growing vessel and counted, 100 μL of cell suspension containing 6000 cells was pipetted into black 96 well Co-star plates and incubated overnight to allow adherence to the surface at a temperature of 37° C. and an atmosphere of 5% CO2. Test compounds were formulated in DMSO and diluted in foetal calf serum supplemented medium. Incubating medium was removed by aspiration and diluted drug supplemented medium added to each well.
The plate was returned to the incubator for an additional eight hours at 37° C. and an atmosphere of 5% CO2. Post incubation, the drug supplemented medium was aspirated from each well and the cells were washed once in ice-cold phosphate buffered saline (PBS). 100 μL of cell lysis buffer (Cell Signalling Technologies #9803) containing 20 mM Tris, 150 mM NaCl, 1 mM EDTA, 1 mM EGTA, 1% Triton-X100, 2.5 mM sodium pyrophosphate, 1 mM glycerophosphate, 1 mM Na3VO4 and 1 μg/mL leupeptin was added to each well of the 96 well plate and incubated at 4° C. for 30 min. The samples on the plate were snap frozen at −80° C. until required.
Immediately before the continuation of the assay, the sample plate was thawed and centrifuged at 4° C. for 10 min and the supernatant transferred to secondary tubes or 96 well plate.
Cell supernatant was mixed in a ratio of 1:1 with sample dilutent buffer and vortexed for one minute. 100 μL of diluted sample was pipetted into pre-coated plates containing a rabbit polyclonal antibody for phospho-cdc2 (Tyr15) (Cell Signalling Technologies PathScan kit #7176). The plate was sealed and incubated overnight at 4° C.
The plate seal was removed and the well contents aspirated, followed by 3×5 min washes with 200 μL of diluted wash buffer. Between each wash the plate was tapped firmly onto blotting paper to ensure the removal of all kit solution. 100 μL of kit detection antibody was added to each well and the plate re-sealed and incubated at 37° C. for 1 h. Post incubation the plate was washed and processed in a similar manner to that previously described.
100 μL of horseradish peroxidise-linked secondary antibody was added to each test well, the plate sealed and incubated for thirty minutes at 37° C. Post incubation, the plate was washed as previously stated, followed by the addition of 100 μL of 3,3′,5,5′ tetramethylbenzidine (TMB reagent). The plate was sealed and incubated at RT for 30 min.
100 μL of stop solution was added to each well and the underside of the plate wiped with a lint-free tissue, prior to spectrophotometric determination. Absorbance from each well was read at 450 nm within 30 min of the addition of the stop solution.
The percentage of phospho-cdc2 was calculated compared to DMSO control and plotted versus the concentration of inhibitor using GraphPad Prism. Data was fitted using non-linear regression analysis and IC50 values generated.

Wee-1 kinase = Wee-1 kinase (Homo sapiens (Human), UniProt P30291); assay: Measurement of Wee-1 kinase activity (ADP-Glo); type: biochemical
Protocol: Method 1: Measurement of Wee-1 kinase activity
In the measurement of Wee-1 activity, a commercial peptide Poly(Lys Tyr(4:1)) hydrobromide was purchased from Sigma Aldrich and used as the substrate. Activated Wee-1 kinase was purchased from Invitrogen (PV3817) and an ADP-Glo luminescent kit was purchased from Promega.
All reactions took place in […] volumes in reaction buffer containing 40 mM Tris-HCl and 20 mM magnesium chloride, supplemented with 0.1 mg/mL bovine serum albumin and 2 mM DTT. Compounds were serially diluted in buffer and 5 μL of each concentration pipetted into a white 384 well plate (Sigma Aldrich M6186). A 5 μL aliquot of the Wee-1 enzyme was added to each well and the plate centrifuged for 1 min to ensure mixing of the enzyme and inhibitor.
The plate was incubated at room temperature for 30 minutes before the addition of 2.0 μg/mL of substrate and 30 μM ATP in a 5 μL aliquot. The plate was centrifuged for one minute and incubated for 1 h at RT.
15 μL of ADP-Glo stop reagent was added to each well to quench the reaction and deplete unconverted ATP. The plate was incubated for a further 40 min in the dark at RT.
30 μL of ADP-Glo kinase detection reagent was added to each well, converting ADP to ATP, catalysing the generation of luciferin by luciferase. The plate was shaken for 1 min, and incubated in the dark for an additional hour.
Luminescence from each well was detected using the Biotek Synergy4 HD plate reader and the percentage inhibition of kinase activity calculated for each inhibitor tested. Positive (kinase only) and negative (no kinase) controls were added to each plate to ensure specific interaction of kinase and inhibitor. The IC50 concentration for each inhibitor was calculated by plotting the percentage kinase inhibition against concentration of inhibitor and the curve generated by non-linear regression fitting.

[3] = target: human ether a go-go related gene (hERG) K+ channel (Homo sapiens (Human), UniProt Q12809); assay: hERG inhibition, IonWorks patch clamp electrophysiology; type: cell-based; settings: 8-point curve from 11 μM
Protocol: Compounds were tested for inhibition of the human ether a go-go related gene (hERG) K^+ channel using IonWorks patch clamp electrophysiology at Essen BioScience.

[4] = Human hepatocyte assay CLint; type: in vitro ADME; settings: hepatocytes
Protocol: (§1) Compounds of the present invention have good stability in human and/or rat hepatocyte incubations. In particular, representative examples 7, 8, 13, 18, 20 have CLint of <20 μL/min/10^6 cells in a human hepatocyte assay and/or <40 μL/min/10^6 cells in a rat hepatocyte assay.

[5] = Rat hepatocyte assay CLint; type: in vitro ADME; settings: hepatocytes
Protocol: as §1

Sequence of Wee-1 kinase (P30291 whole entry): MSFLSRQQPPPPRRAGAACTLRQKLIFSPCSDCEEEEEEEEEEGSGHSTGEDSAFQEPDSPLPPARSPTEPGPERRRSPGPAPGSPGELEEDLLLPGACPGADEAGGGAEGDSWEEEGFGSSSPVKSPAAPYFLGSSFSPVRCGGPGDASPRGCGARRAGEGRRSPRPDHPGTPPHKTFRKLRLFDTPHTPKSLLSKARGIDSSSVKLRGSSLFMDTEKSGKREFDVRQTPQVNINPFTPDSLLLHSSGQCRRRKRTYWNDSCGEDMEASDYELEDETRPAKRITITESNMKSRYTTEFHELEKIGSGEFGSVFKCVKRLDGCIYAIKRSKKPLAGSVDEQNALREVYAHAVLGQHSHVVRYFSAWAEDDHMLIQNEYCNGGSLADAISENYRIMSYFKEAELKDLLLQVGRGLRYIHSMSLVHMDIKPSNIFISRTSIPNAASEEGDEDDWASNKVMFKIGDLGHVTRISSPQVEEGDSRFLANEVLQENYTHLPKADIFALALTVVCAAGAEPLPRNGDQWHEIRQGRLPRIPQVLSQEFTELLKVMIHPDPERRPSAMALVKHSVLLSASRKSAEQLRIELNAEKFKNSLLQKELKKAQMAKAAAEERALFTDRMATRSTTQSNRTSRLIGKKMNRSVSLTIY
Sequence of human ether a go-go related gene (hERG) K+ channel (Q12809 whole entry): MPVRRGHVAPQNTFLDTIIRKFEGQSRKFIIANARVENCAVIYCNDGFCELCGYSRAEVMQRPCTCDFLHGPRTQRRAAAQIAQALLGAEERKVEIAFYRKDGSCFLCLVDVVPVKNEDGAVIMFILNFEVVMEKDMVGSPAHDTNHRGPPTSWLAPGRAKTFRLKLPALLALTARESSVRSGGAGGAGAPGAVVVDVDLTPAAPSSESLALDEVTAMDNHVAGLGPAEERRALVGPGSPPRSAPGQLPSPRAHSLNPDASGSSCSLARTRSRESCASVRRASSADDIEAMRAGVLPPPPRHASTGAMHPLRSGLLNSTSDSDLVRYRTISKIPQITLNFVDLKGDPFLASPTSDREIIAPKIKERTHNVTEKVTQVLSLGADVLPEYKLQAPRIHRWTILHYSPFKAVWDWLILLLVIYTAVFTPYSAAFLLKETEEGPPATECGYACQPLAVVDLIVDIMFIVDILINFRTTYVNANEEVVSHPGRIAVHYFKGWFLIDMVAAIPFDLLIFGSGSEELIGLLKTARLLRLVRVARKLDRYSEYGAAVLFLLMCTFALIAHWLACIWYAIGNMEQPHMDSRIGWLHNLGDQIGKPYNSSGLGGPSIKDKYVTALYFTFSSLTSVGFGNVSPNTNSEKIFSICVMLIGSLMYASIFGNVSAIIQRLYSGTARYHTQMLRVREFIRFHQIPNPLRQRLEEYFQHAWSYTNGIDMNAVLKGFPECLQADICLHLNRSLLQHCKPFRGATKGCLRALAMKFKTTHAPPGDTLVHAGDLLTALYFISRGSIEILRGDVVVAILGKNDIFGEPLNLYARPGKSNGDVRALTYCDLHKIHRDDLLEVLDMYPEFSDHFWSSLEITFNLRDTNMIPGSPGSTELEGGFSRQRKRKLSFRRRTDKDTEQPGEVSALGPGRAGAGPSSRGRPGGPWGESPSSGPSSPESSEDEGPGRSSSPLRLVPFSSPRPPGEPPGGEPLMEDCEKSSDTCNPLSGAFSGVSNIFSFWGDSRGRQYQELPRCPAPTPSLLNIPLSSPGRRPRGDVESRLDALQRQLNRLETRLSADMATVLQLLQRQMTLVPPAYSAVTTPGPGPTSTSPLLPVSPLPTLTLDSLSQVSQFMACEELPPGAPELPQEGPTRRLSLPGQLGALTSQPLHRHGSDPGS

microsomal CLint at 1 μM [1] | IC50 [2] | IC50 (Wee-1 kinase; read-out: Wee-1 IC50 activity) | hepatocyte CLint [4] | hepatocyte CLint [5] | Compound | IC50 [3] | IC50 (Wee-1 kinase)
≤ 20 µL/min/mg | 0.1 to 1 µM | < 0.01 µM |  |  | Cc1cn(-c2c(Cl)cccc2Cl)c(=O)c2cnc(Nc3ccc(N4CCNCC4)cc3)nc12 [Example 2, 6-(2,6-Dichlorophenyl)-8-methyl-2-((4-(piperazin-1-yl)phenyl)amino)pyrido[4,3-d]pyrimidin-5(6H)-one] | ≥ 10 µM | 
≤ 20 µL/min/mg | 0.1 to 1 µM | < 0.01 µM | < 20 µL/min/1e6 cells | < 40 µL/min/1e6 cells | CN1CCN(c2ccc(Nc3ncc4c(=O)n(-c5c(Cl)cccc5Cl)ccc4n3)cc2CO)CC1 [Example 8, 6-(2,6-Dichlorophenyl)-2-((3-(hydroxymethyl)-4-(4-methylpiperazin-1-yl)phenyl)amino)pyrido[4,3-d]pyrimidin-5(6H)-one] |  | 
≤ 20 µL/min/mg | 0.1 to 1 µM | < 0.01 µM |  |  | CN1CCC(c2ccc(Nc3ncc4c(=O)n(-c5c(Cl)cccc5Cl)ccc4n3)cc2)CC1 [Example 10, 6-(2,6-Dichlorophenyl)-2-((4-(1-methylpiperidin-4-yl)phenyl)amino)pyrido[4,3-d]pyrimidin-5(6H)-one, HCl] | 1 to 10 µM | 
> 20 µL/min/mg | ≤ 0.1 µM | < 0.01 µM |  |  | O=c1c2cnc(Nc3ccc(N4CCN(CCO)CC4)cc3)nc2ccn1-c1c(Cl)cccc1Cl [Example 21, 6-(2,6-Dichlorophenyl)-2-((4-(4-(2-hydroxyethyl)piperazin-1-yl)phenyl)amino)pyrido[4,3-d]pyrimidin-5(6H)-one] |  | 
> 20 µL/min/mg | ≤ 0.1 µM | < 0.01 µM |  |  | NCC#Cc1cn(-c2c(Cl)cccc2Cl)c(=O)c2cnc(Nc3ccc(N4CCOCC4)cc3)nc12 [Example 22, 8-(3-Aminoprop-1-yn-1-yl)-6-(2,6-dichlorophenyl)-2-((4-morpholinophenyl)amino)pyrido[4,3-d]pyrimidin-5(6H)-one] |  | 
> 20 µL/min/mg | ≤ 0.1 µM | < 0.01 µM |  |  | O=c1c2cnc(Nc3ccc(N4CCNCC4)cc3)nc2c(-c2cccnc2)cn1-c1c(Cl)cccc1Cl [Example 23, 6-(2,6-Dichlorophenyl)-2-((4-(piperazin-1-yl)phenyl)amino)-8-(pyridin-3-yl)pyrido[4,3-d]pyrimidin-5(6H)-one] |  | 
≤ 20 µL/min/mg | 0.1 to 1 µM | < 0.01 µM |  |  | Cc1cc(Nc2ncc3c(=O)n(-c4ccccc4Cl)ccc3n2)ccc1N1CCNCC1 [Example 24, 6-(2-Chlorophenyl)-2-((3-methyl-4-(piperazin-1-yl)phenyl)amino)pyrido[4,3-d]pyrimidin-5(6H)-one] |  | 
≤ 20 µL/min/mg | 0.1 to 1 µM | < 0.01 µM |  |  | O=c1c2cnc(Nc3ccc(N4CCNCC4)c(Cl)c3)nc2ccn1-c1c(Cl)cccc1Cl [Example 27, 2-((3-Chloro-4-(piperazin-1-yl)phenyl)amino)-6-(2,6-dichlorophenyl)pyrido[4,3-d]pyrimidin-5(6H)-one] |  | 
≤ 20 µL/min/mg | ≤ 0.1 µM | < 0.01 µM |  |  | O=c1c2cnc(Nc3ccc(N4CCNCC4)c(F)c3)nc2ccn1-c1c(Cl)cccc1Cl [Example 29, 6-(2,6-Dichlorophenyl)-2-((3-fluoro-4-(piperazin-1-yl)phenyl)amino)pyrido[4,3-d]pyrimidin-5(6H)-one] |  | 

Compound | microsomal CLint at 1 μM [1] | IC50 [2] | IC50 (Wee-1 kinase; read-out: Wee-1 IC50 activity) | hepatocyte CLint [4] | hepatocyte CLint [5] | IC50 [3] | IC50 (Wee-1 kinase)
CN(C)CCc1ccc(Nc2ncc3c(=O)n(-c4c(Cl)cccc4Cl)ccc3n2)cc1 [Example 11, 6-(2,6-Dichlorophenyl)-2-((4-(2-(dimethylamino)ethyl)phenyl)amino)pyrido[4,3-d]pyrimidin-5(6H)-one, HCl] | > 20 µL/min/mg | 0.1 to 1 µM | 0.01 to 0.2 µM |  |  | 1 to 10 µM | 
COc1cc(Nc2ncc3c(=O)n(-c4c(Cl)cccc4Cl)ccc3n2)ccc1N1CCN(C)CC1 [Example 12, 6-(2,6-Dichlorophenyl)-2-((3-methoxy-4-(4-methylpiperazin-1-yl)phenyl)amino)pyrido[4,3-d]pyrimidin-5(6H)-one, HCl] | > 20 µL/min/mg | ≤ 0.1 µM |  |  |  | 1 to 10 µM | 0.01 to 0.2 µM
CNCCOc1ccc(Nc2ncc3c(=O)n(-c4c(Cl)cccc4Cl)ccc3n2)cc1 [Example 16, 6-(2,6-Dichlorophenyl)-2-((4-(2-(methylamino)ethoxy)phenyl)amino)pyrido[4,3-d]pyrimidin-5(6H)-one, HCl] | ≤ 20 µL/min/mg | 0.1 to 1 µM |  |  |  | ≥ 10 µM | 0.01 to 0.2 µM
CC(C)N1CCN(c2ccc(Nc3ncc4c(=O)n(-c5c(Cl)cccc5Cl)ccc4n3)cc2)CC1 [Example 17, 6-(2,6-Dichlorophenyl)-2-((4-(4-isopropylpiperazin-1-yl)phenyl)amino)pyrido[4,3-d]pyrimidin-5(6H)-one] | > 20 µL/min/mg | 0.1 to 1 µM | 0.01 to 0.2 µM |  |  | 1 to 10 µM | 
O=c1c2cnc(Nc3ccc(N4CCOCC4)cc3)nc2ccn1-c1c(Cl)cccc1Cl [Example 19, 6-(2,6-Dichlorophenyl)-2-((4-morpholinophenyl)amino)pyrido[4,3-d]pyrimidin-5(6H)-one] | > 20 µL/min/mg | ≥ 1 µM |  |  |  | ≥ 10 µM | 0.01 to 0.2 µM
O=c1c2cnc(Nc3cc(F)c(N4CCNCC4)c(F)c3)nc2ccn1-c1c(Cl)cccc1Cl [Example 30, 6-(2,6-Dichlorophenyl)-2-((3,5-difluoro-4-(piperazin-1-yl)phenyl)amino)pyrido[4,3-d]pyrimidin-5(6H)-one] | ≤ 20 µL/min/mg | ≥ 1 µM | 0.01 to 0.2 µM |  |  |  | 
